Source: publication PMC5958115, “A novel small molecule chaperone of rod opsin and its potential therapy for retinal degeneration” (Nature Communications, 2018)

Assays:
bovine rod opsin = molecular target: T1, bovine rod opsin (Bos taurus, UniProt P02699); test: Gt activation assay (GTPγS-induced fluorescence change); format: biochemical
T1 construct: Constitutive activity of bovine opsin in disc membranes; from tissue; host or cells: bovine retina ROS membranes (opsin membranes and purified Gt)
Protocol: Gt was extracted and purified from frozen bovine ROS membranes as described in Preparation of Opsin Membranes. The intrinsic increase in the fluorescence from Gtα was measured with a L55 luminescence spectrophotometer (PerkinElmer Life Sciences) using an excitation and emission wavelengths of 300 and 345 nm, respectively[39],[40]. […] DMSO-treated opsin membranes were used to obtain a baseline for the basal activity of opsin. The molar ratio of opsin to Gt was 1:10, with opsin at a concentration of 100 nM and Gt at 1000 nM. […] This step was followed by the addition of 300 μM GTPγS (Sigma-Aldrich) to determine the GTPγS-induced complex dissociation and corresponding fluorescence changes. Gt activation rates were determined and plotted for the first 100 s of the Gt activation assay[40],[67].

ovine COX-1 = molecular target: T2, ovine COX-1 (Ovis aries, UniProt P05979); test: COX-1 activity assay (fluorometric); format: biochemical; details: up to 80 µM
T2 construct: purchased Abcam
Protocol: The effect of the compound YC-001 on COX-1 activity was evaluated using the COX-1 Inhibitor Screening Kit (Abcam, Cambridge, MA, USA) according to the manufacture’s protocol. Briefly, the assay is based on the fluorometric detection of Prostaglandin G2, the intermediate product generated by the COX-1 enzyme. COX reaction mix included ovine COX-1, COX probe, and COX cofactor was prepared in a 96-well plate. YC-001 working solutions were dissolved in DMSO, and then mixed with COX Reaction Mix to the final concentrations (80, 40, 20, 10, 5, 2.5, 1.25, 0.625, 0.312, 0.156, 0.078 and 0.039 µM). Equivalent volume of DMSO was used as vehicle control and SC560 was used as a positive control. All controls and samples were measured in triplicate. Then arachidonic acid was added into each well to initiate all the reactions at the same time. The fluorescence was measured at Ex/Em = 535/587 nm in a kinetic mode for 15 min at 25 °C. Five time points were chosen in the linear range of the plot and the corresponding values for the fluorescence were used to calculate the slope of the linear regression equation. Relative COX-1 activity was calculated as Eq. 5: RelativeCOX-1Activity(%)=Slopeofsample/Slopeofenzymecontrol×100 .

C57BL/6 mice = test: Toxicity by daily i.p. injections, survival, behavior and body weight; format: in vivo; details: 200 and 100 mg kg^−1 bw daily i.p., day 14 to 38, vs DMSO
Protocol: To estimate the long-term toxicity of YC-001 in mice, we administered YC-001 to C57BL/6 mice by daily i.p. injections from Day 14 to 38 after birth with one of two doses, either 100 mg kg^−1 or 200 mg kg^−1 bw. Equivalent volumes of DMSO were injected into control groups. Body weights of treated mice were measured daily. Each dosage group contained three mice including males and females.

human clarin-1 N48K = molecular target: T3, human clarin-1 N48K (Homo sapiens, UniProt P58418, N48K); test: Image-based analysis of Clarin-1-N48K-Venus in HEK 293 cells; format: cell-based; details: 24 h
T3 construct: expressed in transfected cells
Protocol: HEK 293 stable cells co-expressing human clarin-1 N48K-Venus fluorescent protein and DsRed-Express-DR fusion protein were obtained from Dr. Yoshikazu Imanishi at Case Western Reserve University (CWRU). Cells were cultured in DMEM medium with 10% FBS following guidelines from ATCC. To test effects of YC-001 treatments on clarin-1 N48K-Venus amounts in these cells, an image-based assay was performed. Briefly, cells were seeded at 20,000 cells per well in 40 µL per well DMEM medium with 10% FBS in a 384-well PerkinElmer View plate coated with poly-D-lysine and cultured at 37 °C with 5% CO2 for 24 h. Cells then were treated with 10 µL per well DMEM medium with 10% FBS containing 5× the final concentration of tested compounds. […] Each compound was tested with 10 doses in a twofold dilution series, featuring three biological replicates. The 384-well plate was put back for incubation at 37 °C with 5% CO2. After 24 h of exposure to test compounds, the plate was removed, and the medium was aspirated and replaced by 20 µL per well of 4% paraformaldehyde for fixation at RT for 20 min. […] Images were analyzed by the Columbus storage and analysis system (PerkinElmer). Hoechst33342 fluorescence images were used to define nuclei and count cells. […] YFP and DsRed fluorescence intensities per cell were measured in each well.

[1] = set-up: method as in PubChem database, CID 2377702; details: ref PubChem database, CID 2377702; cited from earlier work

T1 sequence (P02699 whole entry): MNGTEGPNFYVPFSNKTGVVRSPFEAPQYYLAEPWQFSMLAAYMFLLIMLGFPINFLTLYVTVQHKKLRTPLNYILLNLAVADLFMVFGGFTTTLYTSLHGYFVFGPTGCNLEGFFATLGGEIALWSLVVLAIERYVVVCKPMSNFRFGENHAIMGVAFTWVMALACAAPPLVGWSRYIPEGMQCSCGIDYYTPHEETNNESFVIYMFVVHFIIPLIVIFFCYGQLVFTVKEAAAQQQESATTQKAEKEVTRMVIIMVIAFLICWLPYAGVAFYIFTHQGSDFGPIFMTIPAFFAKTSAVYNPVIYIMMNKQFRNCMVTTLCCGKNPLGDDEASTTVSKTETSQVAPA
T3 sequence (P58418 whole entry N48K): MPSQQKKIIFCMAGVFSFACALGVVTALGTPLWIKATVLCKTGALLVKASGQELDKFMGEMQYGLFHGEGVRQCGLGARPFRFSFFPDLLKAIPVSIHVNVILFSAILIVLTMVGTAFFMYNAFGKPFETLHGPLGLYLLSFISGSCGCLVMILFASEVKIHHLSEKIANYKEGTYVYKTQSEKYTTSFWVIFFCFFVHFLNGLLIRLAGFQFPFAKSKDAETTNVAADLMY
T2 sequence (P05979 25-600): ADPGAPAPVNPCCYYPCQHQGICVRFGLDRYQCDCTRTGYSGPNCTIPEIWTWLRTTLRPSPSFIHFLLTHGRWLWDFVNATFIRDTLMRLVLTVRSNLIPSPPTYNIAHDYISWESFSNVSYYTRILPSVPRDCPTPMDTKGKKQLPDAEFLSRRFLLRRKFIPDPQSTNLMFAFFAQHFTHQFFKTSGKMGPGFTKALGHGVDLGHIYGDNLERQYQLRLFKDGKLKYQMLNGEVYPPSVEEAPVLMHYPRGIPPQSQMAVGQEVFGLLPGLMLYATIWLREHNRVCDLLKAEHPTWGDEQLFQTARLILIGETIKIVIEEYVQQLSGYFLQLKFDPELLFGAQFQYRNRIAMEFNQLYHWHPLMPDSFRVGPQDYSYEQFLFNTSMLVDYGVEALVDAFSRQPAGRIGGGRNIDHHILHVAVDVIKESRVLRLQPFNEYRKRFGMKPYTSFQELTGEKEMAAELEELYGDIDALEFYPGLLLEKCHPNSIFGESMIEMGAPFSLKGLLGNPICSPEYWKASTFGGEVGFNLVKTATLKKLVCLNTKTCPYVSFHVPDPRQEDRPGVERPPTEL

initial rate of Gt activation, ln(kinitial) (bovine rod opsin; isorhodopsin regenerated by 40 µM 9-cis-retinal alone, upon illumination) | Structure (SMILES) | initial rate of Gt activation, ln(kinitial) (bovine rod opsin; 40 µM compound, constitutive activity of opsin, DMSO control −5.3) | initial rate of Gt activation, ln(kinitial) (bovine rod opsin; co-treated with 40 µM 9-cis-retinal and 40 µM YC-001, upon illumination) | COX-1 enzymatic activity (ovine COX-1) | behavioral or bw growth changes (C57BL/6 mice) | effect on amount or stability of the clarin-1 N48K mutant (human clarin-1 N48K) | activity in 8 other bioassays [1]
−4.6 | CC1=C(/C=C/C(C)=C\C=C\C(C)=C\C=O)C(C)(C)CCC1 [9-cis-retinal, reference compound] |  |  |  |  |  | 
 | O=C1OCC(c2ccc(Cl)s2)=C1c1cccs1 [YC-001] | −6.1 | −4.9 | did not see changes | no obvious behavioral or bw growth changes | did not affect the amount or stability | no known activities
